In BigSolDB 2.1:

[NH3+]O.[NH3+]O.[O-]n1nnnc1-c1nnnn1[O-]
solubility (mole fraction)
Settings | in DMF | in DMSO | in ethanol | in ethyl acetate | in formic acid | in toluene | in water
293.15 K | 6.38e-05 | 0.00122 | 3.87e-06 | 1.93e-06 | 0.000213 | 1.85e-05 | 2.42e-05
298.15 K | 7.18e-05 | 0.00131 | 4.82e-06 | 2.16e-06 | 0.000231 | 2.2e-05 | 2.83e-05
303.15 K | 9.56e-05 | 0.00149 | 5.92e-06 | 2.37e-06 | 0.00025 | 2.44e-05 | 3.29e-05
308.15 K | 0.000142 | 0.00159 | 7.19e-06 | 2.72e-06 | 0.00028 | 2.6e-05 | 3.59e-05
313.15 K | 0.000183 | 0.00179 | 8.16e-06 | 3.16e-06 | 0.000302 | 2.89e-05 | 4.17e-05
318.15 K | 0.000225 | 0.00191 | 9.64e-06 | 3.56e-06 | 0.000347 | 3.24e-05 | 4.84e-05
323.15 K | 0.000269 | 0.00211 | 1.21e-05 | 3.92e-06 | 0.000392 | 3.69e-05 | 5.5e-05
